Several values for one entry are separate records, joined by “and”; a condition that tells them apart may be missing. Equal values may be shown once.
Assays:
[1] = Preliminary toxicity in the xenograft mice model; type: in vivo, NOD/SCID mice
Description: (§1) NOD/SCID mice (6-week-old, weight 18–20 g, Beijing HJF bioscience) were used in this experiment and maintained in a specific-pathogen-free (SPF) condition facility. SNU-16 Cells were resuspended in PBS mixed with Matrigel (1:1) and adjust the density to 1×10^7 per mice (100 μL). The cell suspensions were inoculated subcutaneously on the right flank of the mice. When the mean tumor volume reached approximately 200 mm^3, the mice were divided into four groups (five mice each group): i. Vehicle group, ii. RK-019 15 mg/kg group, iii. RK-019 30 mg/kg group, and iv. RK-019 45 mg/kg group. RK-019 was dissolved in same formula as the in vivo PK study. RK-019 was administrated once per day by oral gavage for 21 days. Tumor volumes were measured three times per week. The tumor volume was measured by a caliper and calculated according to the following formula: Tumor volume=Major axis×Miner axis^2/2.
(§2) At the end of administration, the mice were executed euthanasia, then tumors, blood, and organs were extracted. The complete blood count (CBC), serum phosphorus analysis, and blood biochemical analysis were completed by West China Frontier Pharma Tech (Chengdu, China). The pathological section and IHC stanning was completed by Servicebio (Wuhan, China). The tumor growth inhibition (TGI) values were calculated with the following formula: TGI=(1−Tn−T0/Cn−C0)×100%.

Rsk1(r) = target: T1, Rsk1(r) (Rattus norvegicus, UniProt Q63531); assay: Kinase selectivity panel; type: biochemical; conditions: read-out: Inhibition(%) @ 1 µM RK-019
T1 construct: purchased Eurofins Discovery Services (KinaseProfiler)

FGFR3 = target: T2, FGFR3 (Homo sapiens, UniProt P22607); assay: Kinase inhibition IC50 assay (Eurofins); type: biochemical
T2 construct: purchased Eurofins Discovery Services (Dundee, United Kingdom)
Description: (§3) Median-inhibitory concentration (IC50) and inhibition ratio of kinases by RK-019 was assessed by Eurofins Discovery Services (Dundee, United Kingdom) using the ATP-site competition binding assay in vitro. Firstly, gradient concentration of RK-019 against FGFRs, including FGFR1, FGFR2, FGFR3, and FGFR4, were tested. IC50 value was calculate by the GraphPad Prism software (v8.4.3, GraphPad Software, California, United States). Then, to measure the selectivity prolife of RK-019, a panel of 422 recombinant human kinases was screened at a concentration of 1 µM RK-019. Kinase MAP was drawn by webtools from Cell Signaling Technology, Inc. (www.cellsignal.com).
(§4) All data were analyzed by the GraphPad Prism 8.4.3 (GraphPad Software, California, United States), and was shown as mean value ±SD or SEM, details will be illustrated in the figure legends. Dose-effect curve analysis (IC50 calculation) was performed by the Graphpad Prism software. First, concentration value was converted to log value, followed by non-linear regression analyze which is log(inhibitor) vs. normalized response—Variable slope, was performed to calculate the IC50 values. The statistically significant p values were calculated by student’s t-test or two-way ANOVA and were shown in graphics which were labeled as follows: *p < 0.05; **p < 0.01; ***p < 0.001.

FGFR2 = target: T3, FGFR2 (Homo sapiens, UniProt P21802); assay: Kinase inhibition IC50 assay (Eurofins); type: biochemical
T3 construct: purchased Eurofins Discovery Services (Dundee, United Kingdom)
Description: as §3, §4

FGFR4 = target: T4, FGFR4 (Homo sapiens, UniProt P22455); assay: Kinase inhibition IC50 assay (Eurofins); type: biochemical
T4 construct: purchased Eurofins Discovery Services (Dundee, United Kingdom)
Description: as §3, §4

FGFR1 = target: T5, FGFR1 (Homo sapiens, UniProt P11362); assay: Kinase inhibition IC50 assay (Eurofins); type: biochemical
T5 construct: purchased Eurofins Discovery Services (Dundee, United Kingdom)
Description: as §3, §4

SNU-16 xenograft = assay: Subcutaneous xenograft model; type: in vivo, NOD/SCID mice
Description: as §1, §2
Tn and T0 represent average tumor volume before treatment and that of day n after treatment in the treatment group. Cn and C0 represent average tumor volume before treatment and that of day n after treatment in the vehicle group. In this study, n is 21st day.

ROCK-II(r) = assay: Kinase selectivity panel; type: biochemical, rat; conditions: read-out: Inhibition(%) @ 1 µM RK-019
Description: as §3

T5 sequence (P11362 22-822): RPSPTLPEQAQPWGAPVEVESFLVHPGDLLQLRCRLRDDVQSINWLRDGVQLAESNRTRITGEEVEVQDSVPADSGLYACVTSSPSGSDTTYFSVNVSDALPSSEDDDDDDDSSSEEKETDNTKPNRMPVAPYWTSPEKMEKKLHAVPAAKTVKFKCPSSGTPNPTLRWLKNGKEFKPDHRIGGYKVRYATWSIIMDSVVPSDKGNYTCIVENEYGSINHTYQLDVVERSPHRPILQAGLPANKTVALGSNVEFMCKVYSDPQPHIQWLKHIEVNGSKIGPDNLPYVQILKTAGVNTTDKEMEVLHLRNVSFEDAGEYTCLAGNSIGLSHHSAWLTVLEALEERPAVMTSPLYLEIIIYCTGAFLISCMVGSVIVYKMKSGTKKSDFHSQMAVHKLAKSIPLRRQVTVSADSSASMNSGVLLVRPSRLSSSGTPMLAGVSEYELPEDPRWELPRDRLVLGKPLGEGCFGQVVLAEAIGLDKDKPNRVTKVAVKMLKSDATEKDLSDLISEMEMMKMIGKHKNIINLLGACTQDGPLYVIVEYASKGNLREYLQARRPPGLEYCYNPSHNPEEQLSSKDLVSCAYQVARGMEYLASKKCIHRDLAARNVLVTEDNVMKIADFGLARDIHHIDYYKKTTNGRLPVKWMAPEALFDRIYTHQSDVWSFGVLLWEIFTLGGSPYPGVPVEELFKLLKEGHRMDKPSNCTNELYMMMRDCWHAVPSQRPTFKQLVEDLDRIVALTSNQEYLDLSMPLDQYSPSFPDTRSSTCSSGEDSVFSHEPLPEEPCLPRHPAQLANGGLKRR
T4 sequence (P22455 22-802): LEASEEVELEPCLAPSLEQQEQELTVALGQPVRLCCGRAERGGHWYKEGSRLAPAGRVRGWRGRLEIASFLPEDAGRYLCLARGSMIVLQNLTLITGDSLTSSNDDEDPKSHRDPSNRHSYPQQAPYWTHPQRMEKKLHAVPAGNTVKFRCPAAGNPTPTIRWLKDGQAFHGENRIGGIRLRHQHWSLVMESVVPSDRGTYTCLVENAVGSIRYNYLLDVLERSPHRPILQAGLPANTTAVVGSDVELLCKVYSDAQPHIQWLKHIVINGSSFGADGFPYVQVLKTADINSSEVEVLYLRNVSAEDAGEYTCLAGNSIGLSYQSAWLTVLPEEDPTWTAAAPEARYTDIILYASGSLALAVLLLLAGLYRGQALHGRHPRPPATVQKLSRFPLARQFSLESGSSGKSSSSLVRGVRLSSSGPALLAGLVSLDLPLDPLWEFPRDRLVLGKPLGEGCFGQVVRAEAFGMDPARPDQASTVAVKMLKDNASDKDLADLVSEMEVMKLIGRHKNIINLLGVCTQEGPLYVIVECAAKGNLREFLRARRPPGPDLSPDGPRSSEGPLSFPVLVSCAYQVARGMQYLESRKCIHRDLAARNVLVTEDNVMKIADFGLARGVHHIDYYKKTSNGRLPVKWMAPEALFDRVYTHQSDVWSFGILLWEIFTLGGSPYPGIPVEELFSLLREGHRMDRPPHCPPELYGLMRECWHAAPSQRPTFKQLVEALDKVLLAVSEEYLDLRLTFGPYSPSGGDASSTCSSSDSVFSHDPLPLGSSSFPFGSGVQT
T3 sequence (P21802 22-821): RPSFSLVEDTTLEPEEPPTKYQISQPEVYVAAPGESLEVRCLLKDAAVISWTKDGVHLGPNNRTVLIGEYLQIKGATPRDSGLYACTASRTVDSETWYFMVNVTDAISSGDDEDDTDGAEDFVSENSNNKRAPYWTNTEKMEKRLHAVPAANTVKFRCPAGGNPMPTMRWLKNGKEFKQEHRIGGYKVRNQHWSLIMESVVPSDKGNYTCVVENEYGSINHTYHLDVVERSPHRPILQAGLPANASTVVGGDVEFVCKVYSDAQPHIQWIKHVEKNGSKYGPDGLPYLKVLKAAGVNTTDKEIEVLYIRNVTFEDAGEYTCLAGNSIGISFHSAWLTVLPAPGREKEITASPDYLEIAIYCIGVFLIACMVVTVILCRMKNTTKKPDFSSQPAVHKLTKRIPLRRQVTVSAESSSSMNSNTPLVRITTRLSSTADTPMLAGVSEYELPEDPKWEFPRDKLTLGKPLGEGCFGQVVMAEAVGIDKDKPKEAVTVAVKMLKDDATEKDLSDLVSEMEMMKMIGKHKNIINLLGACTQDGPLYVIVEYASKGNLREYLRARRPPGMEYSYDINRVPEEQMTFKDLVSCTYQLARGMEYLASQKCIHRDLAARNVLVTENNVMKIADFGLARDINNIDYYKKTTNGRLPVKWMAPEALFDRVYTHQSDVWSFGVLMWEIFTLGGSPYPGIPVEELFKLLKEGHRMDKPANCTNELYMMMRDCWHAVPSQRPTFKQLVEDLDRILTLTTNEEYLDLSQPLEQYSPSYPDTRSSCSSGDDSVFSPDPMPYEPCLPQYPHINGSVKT
T2 sequence (P22607 23-806): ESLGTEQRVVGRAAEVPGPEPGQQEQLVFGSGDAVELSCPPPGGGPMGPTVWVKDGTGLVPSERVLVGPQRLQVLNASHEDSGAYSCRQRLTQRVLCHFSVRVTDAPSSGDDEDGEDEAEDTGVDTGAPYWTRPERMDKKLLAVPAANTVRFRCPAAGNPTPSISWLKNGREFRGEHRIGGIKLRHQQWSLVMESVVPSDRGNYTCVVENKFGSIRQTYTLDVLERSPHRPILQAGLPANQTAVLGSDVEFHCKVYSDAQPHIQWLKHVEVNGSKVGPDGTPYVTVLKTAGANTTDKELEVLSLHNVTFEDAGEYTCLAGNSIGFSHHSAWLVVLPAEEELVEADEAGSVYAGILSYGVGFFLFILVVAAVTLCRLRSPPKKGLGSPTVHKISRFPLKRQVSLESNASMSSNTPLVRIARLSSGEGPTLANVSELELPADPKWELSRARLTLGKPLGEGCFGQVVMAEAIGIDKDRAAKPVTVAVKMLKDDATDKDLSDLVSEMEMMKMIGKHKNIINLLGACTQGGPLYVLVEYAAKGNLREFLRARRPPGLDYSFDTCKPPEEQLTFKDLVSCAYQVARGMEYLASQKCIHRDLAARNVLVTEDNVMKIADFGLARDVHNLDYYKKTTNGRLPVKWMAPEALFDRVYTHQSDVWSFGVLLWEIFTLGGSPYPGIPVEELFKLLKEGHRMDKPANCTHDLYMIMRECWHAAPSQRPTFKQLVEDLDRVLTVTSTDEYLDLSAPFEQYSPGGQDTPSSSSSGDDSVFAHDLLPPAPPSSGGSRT
T1 sequence (Q63531 whole entry): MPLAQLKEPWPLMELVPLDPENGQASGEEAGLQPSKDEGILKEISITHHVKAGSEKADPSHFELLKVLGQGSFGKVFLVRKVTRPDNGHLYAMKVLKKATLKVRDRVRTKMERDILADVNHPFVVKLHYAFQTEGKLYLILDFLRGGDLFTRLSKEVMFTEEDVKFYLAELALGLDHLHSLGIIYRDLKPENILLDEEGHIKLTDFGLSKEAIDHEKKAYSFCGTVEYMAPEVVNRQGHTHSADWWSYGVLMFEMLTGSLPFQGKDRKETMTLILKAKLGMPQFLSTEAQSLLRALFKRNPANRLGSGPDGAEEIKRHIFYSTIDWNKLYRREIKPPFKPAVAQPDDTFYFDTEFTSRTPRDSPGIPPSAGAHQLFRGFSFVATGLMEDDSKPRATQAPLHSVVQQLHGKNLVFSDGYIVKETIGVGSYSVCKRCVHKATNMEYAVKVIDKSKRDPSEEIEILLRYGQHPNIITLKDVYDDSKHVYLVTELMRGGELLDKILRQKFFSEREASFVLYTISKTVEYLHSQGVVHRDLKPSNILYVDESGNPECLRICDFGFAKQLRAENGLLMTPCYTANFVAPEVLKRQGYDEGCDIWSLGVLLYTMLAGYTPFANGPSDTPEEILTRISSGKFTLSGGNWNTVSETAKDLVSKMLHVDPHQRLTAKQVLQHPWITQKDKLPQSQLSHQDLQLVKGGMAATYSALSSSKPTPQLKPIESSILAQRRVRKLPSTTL

COc1cc(OC)cc(N(CCN[C@H](C)CO)c2ccc3ncc(-c4cnn(C)c4)c(=O)n3c2)c1 [RK-019, (R)-7-((3,5-dimethoxyphenyl) (2-((1-hydroxypropan-2-yl)amino)ethyl)amino)-3-(1-methyl-1H-pyrazol-4-yl)-4H-pyrido [1,2-a]pyrimidin-4-one]
body weight change ([1]; during 21 days treatment, 15-45 mg/kg oral): no significant body weight change | hematopoietic toxicity ([1]; end of 21 days treatment): absent | pathological changes in harvested organs (H&E) ([1]; end of 21 days treatment): no pathological changes | activity at 1 µM (Rsk1(r)): 96% | IC50 (FGFR3): 26.3 nM | IC50 (FGFR2): 4.6 nM | IC50 (FGFR4): 40.7 nM | IC50 (FGFR1): 8.9 nM and 9.1 nM | TGI (SNU-16 xenograft; 15 mg/kg oral once a day, 21 days): 34.3% | TGI (SNU-16 xenograft; 30 mg/kg oral once a day, 21 days): 85.9% | TGI (SNU-16 xenograft; 45 mg/kg oral once a day, 21 days): 83.5% | tumor weight (SNU-16 xenograft; RK-019-treated group vs vehicle group, 21 days): significant decrease | number of cleaved-caspase 3-positive cells (IHC of tumor tissue) (SNU-16 xenograft; after 21 days treatment): increased significantly | number of p-FGFR2-positive and Ki67-positive cells (IHC of tumor tissue) (SNU-16 xenograft; after 21 days treatment): decreased | activity (ROCK-II(r)): 91%
